Assay results as given in patent US20260125359A1, “HETEROARYL COMPOUNDS AS MULTI-TARGET PROTEIN KINASE INHIBITORS” (FUJIAN HAIXI PHARMACEUTICALS CO., LTD., priority 2023, published 2026).

Test system: M-NFS-60 cells
Assay: M-NFS-60 cell in vitro assay (CCK, 48 h, M-CSF factor medium)
Format: cell-based
Settings: M-NFS-60 cells; read-out: M-NFS-60cellassay IC50
How it was run: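 Mouse M-NFS-60 cells (2000/well) in RPMI-1640 with 10% serum and M-CSF (25 ng/ml) were pre-incubated 4 h, then exposed to DMSO-diluted compound gradients for 48 h at 5% CO2. Viability read by CCK, 2 h, OD 450 nm; IC50 from curve fitting.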

SMILES	IC50 [nM]
Cn1cc(-c2cncc(N[C@H]3CCc4c(Nc5noc(C(C)(C)C)n5)cccc43)c2)cn1 [Compound 42o]	50 to 200
Cn1cc2ncc(O[C@H]3CCc4c(C(=O)Nc5nn(C)c6cccc(F)c56)cccc43)cc2n1 [Compound 76aw]	< 50
Cn1ncc2ncc(N[C@H]3CCc4c(C(=O)Nc5cccc(C6CC6)c5)cccc43)cc21 [Compound 73, (S)—N-(3-cyclopropylphenyl)-1-((1-methyl-1H-pyrazolo[4,3-b]pyridin-6-yl)amino)-2,3-dihydro-1H-indene-4-carboxamide]	< 50
Cc1cc(NC(=O)c2cccc3c2CC[C@@H]3Oc2cncc(-c3cnn(C)c3)c2)cc(C)n1 [Compound 19k, (S)—N-(2,6-dimethylpyridin-4-yl)-1-((5-(1-methyl-1H-pyrazol-4-yl)pyridin-3-yl)oxy)-2,3-dihydro-1H-indene-4-carboxamide]	< 50
CN1CCc2nc(NC(=O)c3cccc4c3CC[C@@H]4Oc3cncc(-c4cnn(C)c4)c3)sc2C1 [Compound 19f]	50 to 200
CN1CCc2nc(NC(=O)c3cccc4c3CC[C@@H]4Nc3cncc(-c4cnn(C)c4)c3)sc2C1 [Compound 14ba]	< 50
CN(c1cncc(-c2cnn(C)c2)c1)[C@H]1CCc2c(C(=O)Nc3cncc(Cl)c3)cccc21 [Compound 21, (S)—N-(5-chloropyridin-3-yl)-1-(methyl (5-(1-methyl-1H-pyrazol-4-yl)pyridin-3-yl)amino)-2,3-dihydro-1H-indene-4-carboxamide]	50 to 200
Cn1cc2ncc(N[C@H]3CCc4c(C(=O)Nc5nc(C6CC6)cs5)cccc43)cc2n1 [Compound 74h, (S)—N-(4-cyclopropylthiazol-2-yl)-1-((2-methyl-2H-pyrazolo[4,3-b]pyridin-6-yl)amino)-2,3-dihydro-1H-indene-4-carboxamide]	< 50
Cn1ncc2ncc(N[C@H]3CCc4c(Nc5cc(C(C)(C)C)on5)cccc43)nc21 [Compound 86, (S)—N^4-(5-(tert-butyl)isoxazol-3-yl)-N1-(1-methyl-1H-pyrazolo[3,4-b]pyrazin-6-yl)-2,3-dihydro-1H-indene-1,4-diamine]	< 50
Cn1cc2ncc(O[C@H]3CCc4c(C(=O)Nc5cncc(Cl)c5)cccc43)cc2n1 [Compound 76ai]	< 50
Cc1cccc(NC(=O)c2cccc3c2CC[C@@H]3Nc2cncc(-c3cnn(C)c3)c2)c1 [Compound 13, (S)-1-((5-(1-methyl-1H-pyrazol-4-yl)pyridin-3-yl)amino)-N-(m-tolyl)-2,3-dihydro-1H-indene-4-carboxamide]	< 50
Cn1cc(-c2cncc(N[C@H]3CCc4c(C(=O)Nc5nn(C)c6ccccc56)cccc43)n2)cn1 [Compound 27g, (S)—N-(1-methyl-1H-indazol-3-yl)-1-((6-(1-methyl-1H-pyrazol-4-yl)pyrazin-2-yl)amino)-2,3-dihydro-1H-indene-4-carboxamide]	< 50
Cc1cccc(NC(=O)c2cccc3c2CC[C@@H]3Oc2cnc3cn(C)nc3c2)n1 [Compound 76bd]	< 50
Cn1cc2ncc(O[C@H]3CCc4c(C(=O)Nc5nn(C)c6ccccc56)cccc43)cc2n1 [Compound 76al]	< 50
Cn1cc(-c2cnc(N)c(O[C@H]3CCc4c(C(=O)Nc5cccc(C6CC6)c5)cccc43)c2)cn1 [Compound 4, (S)-1-((2-amino-5-(1-methyl-1H-pyrazol-4-yl)pyridin-3-yl)oxy)-N-(3-cyclopropylphenyl)-2,3-dihydro-1H-indene-4-carboxamide]	< 50
CN(c1cnc2cn(C)nc2c1)[C@H]1CCc2c(C(=O)Nc3nn(C)c4ccccc34)cccc21 [Compound 80l]	< 50
Cc1cncc(NC(=O)c2cccc3c2CC[C@@H]3Nc2cncc(-c3cnn(C)c3)c2)c1 [Compound 14as]	< 50
Cc1cncc(NC(=O)c2cccc3c2CC[C@@H]3Oc2cncc(-c3cnn(C)c3)c2)c1 [Compound 19j]	< 50
Cn1cc(-c2cncc(O[C@H]3CCc4c(C(=O)Nc5cncc(Cl)c5)cccc43)c2)cn1 [Compound 19a, (S)—N-(5-chloropyridin-3-yl)-1-((5-(1-methyl-1H-pyrazol-4-yl)pyridin-3-yl)oxy)-2,3-dihydro-1H-indene-4-carboxamide]	< 50
Cc1cccc(C(=O)Nc2cccc3c2CC[C@@H]3Oc2cncc(-c3cnn(C)c3)c2)c1 [Compound 15, (S)-3-methyl-N-(1-((5-(1-methyl-1H-pyrazol-4-yl)pyridin-3-yl)oxy)-2,3-dihydro-1H-inden-4-yl)benzamide]	200 to 500
CN(C)Cc1cncc(NC(=O)c2cccc3c2CC[C@@H]3Oc2cncc(-c3cnn(C)c3)c2)c1 [Compound 19h]	> 500
Cn1cc(-c2cncc(N[C@H]3CCc4c(C(=O)Nc5cncc(Cl)c5)cccc43)c2)cn1 [Compound 14aa, (S)—N-(5-chloropyridin-3-yl)-1-((5-(1-methyl-1H-pyrazol-4-yl)pyridin-3-yl)amino)-2,3-dihydro-1H-indene-4-carboxamide]	< 50
CN1CCc2ccc(NC(=O)c3cccc4c3CC[C@@H]4Nc3cncc(-c4cnn(C)c4)c3)cc2C1 [Compound 14ap]	< 50
Cn1cc(-c2cncc(N[C@H]3CCc4c(C(=O)Nc5ccc(C(F)(F)F)nc5)cccc43)c2)cn1 [Compound 14ah]	< 50
Cn1cc(-c2cncc(O[C@H]3CCc4c(C(=O)Nc5cccc(C6CC6)c5)cccc43)c2)cn1 [Compound 19b]	< 50
Cn1ncc2ncc(O[C@H]3CCc4c(C(=O)Nc5cncc(Cl)c5)cccc43)cc21 [Compound 76ac, (S)—N-(5-chloropyridin-3-yl)-1-((1-methyl-1H-pyrazolo[4,3-b]pyridin-6-yl)oxy)-2,3-dihydro-1H-indene-4-carboxamide]	< 50
CN(c1cncc(-c2cnn(C)c2)c1)[C@H]1CCc2c(C(=O)Nc3cccc(C4CC4)c3)cccc21 [Compound 22a, (S)—N-(3-cyclopropylphenyl)-1-(methyl (5-(1-methyl-1H-pyrazol-4-yl)pyridin-3-yl)amino)-2,3-dihydro-1H-indene-4-carboxamide]	< 50
CN(c1cnc2cn(C)nc2c1)[C@H]1CCc2c(C(=O)Nc3cncc(Cl)c3)cccc21 [Compound 80k]	< 50
Cn1cc(-c2cncc(N[C@H]3CCc4c(Nc5cc(C(C)(C)C)on5)cccc43)c2)cn1 [Compound 41, (S)—N^4-(5-(tert-butyl)isoxazol-3-yl)-N^1-(5-(1-methyl-1H-pyrazol-4-yl)pyridin-3-yl)-2,3-dihydro-1H-indene-1,4-diamine]	< 50
